Data from patent EP0247507A2, “Composition for transdermal therapeutical systems of high-ceiling diuretics, and process for producing it” (priority 1986, dated 1987).

Tested on: Ratte
Experiment: Salidiuretic effect in the rat (urine volume, Na, K, Cl excretion) after percutaneous (TTS) or oral administration
Assay type: in vivo
From the text: Die folgenden Beispiele sollen die Erfindung erläutern. Die Zusammensetzungen wurden durch Mischen der Wirkstoffe mit der Grundlage in einem Rührwerk mit eingebautem Homogenisator erhalten. Als transdermale therapeutische Systeme wurden aus dem deutschen Gebrauchsmuster 84 07 036 bekannte Pflasterpackungen verwendet.

[1] = Furosemid 5 mg/rat p.o. (suspended in 2 % aqueous starch solution), collection period 1 - 5 h, n = 4
[2] = Furosemid 5 mg/rat p.o. (suspended in 2 % aqueous starch solution), collection period 1 - 24 h, n = 4
[3] = Furosemid 5 mg/rat p.o. (suspended in 2 % aqueous starch solution), collection period 6 - 24 h, n = 4
[4] = Piretanid 20 mg/rat p.o. (suspended in 2 % aqueous starch solution), collection period 1 - 5 h, n = 2
[5] = Piretanid 20 mg/rat p.o. (suspended in 2 % aqueous starch solution), collection period 1 - 24 h, n = 2
[6] = Piretanid 20 mg/rat p.o. (suspended in 2 % aqueous starch solution), collection period 6 - 24 h, n = 2

## NS(=O)(=O)c1cc(C(=O)O)c(NCc2ccco2)cc1Cl [Furosemid, 4-Chlor-N-furfuryl-5-sulfamoylanthranilsäure]
[1]
  Chlorid: 6.10 ± 0.62 mmol/kg
  Kalium: 1.40 ± 0.16 mmol/kg
  Natrium: 4.81 ± 0.75 mmol/kg
  Urin: 47.8 ± 3.5 mL/kg
[2]
  Chlorid: 6.59 ± 0.61 mmol/kg
  Kalium: 3.88 ± 0.88 mmol/kg
  Natrium: 6.03 ± 0.75 mmol/kg
  Urin: 59.7 ± 6.2 mL/kg
[3]
  Chlorid: 0.49 ± 0.11 mmol/kg
  Kalium: 2.48 ± 0.79 mmol/kg
  Natrium: 1.22 ± 0.21 mmol/kg
  Urin: 11.9 ± 3.6 mL/kg

## NS(=O)(=O)c1cc(C(=O)O)cc(N2CCCC2)c1Oc1ccccc1 [Piretanid, 4-Phenoxy-3-(1-pyrrolidinyl)-5-sulfamoylbenzoesäure]
[4]
  Chlorid: 8.36 mmol/kg
  Kalium: 1.92 mmol/kg
  Natrium: 7.07 mmol/kg
  Urin: 65.0 mL/kg
[5]
  Chlorid: 11.36 mmol/kg
  Kalium: 11.67 mmol/kg
  Natrium: 11.78 mmol/kg
  Urin: 112.1 mL/kg
[6]
  Chlorid: 3.00 mmol/kg
  Kalium: 9.75 mmol/kg
  Natrium: 4.71 mmol/kg
  Urin: 47.1 mL/kg
